# Measurements from PMC11581978, “Paenilamicins are context-specific translocation inhibitors of protein synthesis” (Nature Chemical Biology, 2024).
# Legend:
# [1] = tested on: E. coli ribosomes translating MLIFstop-mRNA; assay: Toeprinting assay on MLIFstop-mRNA; assay type: biochemical; conditions: 0.5-100 µM, toeprinting in duplicate, 30 min at 37 °C
# From the text: To investigate how paenilamicins inhibit translation, we generated PamB2-stalled ribosome complexes (PamB2-SRC) for single-particle cryo-EM analysis. Rather than forming complexes on vacant ribosomes, or with predefined functional states, we instead aimed to use more physiological complexes where translating ribosomes become stalled by PamB2. To achieve this, we performed in vitro translation reactions with E. coli ribosomes using the Met-Leu-Ile-Phe-stop-mRNA (MLIFstop-mRNA), a model template that we had previously used to successfully determine structures of drosocin-stalled ribosomal complexes. Toeprinting was used to monitor the position of ribosomes on the MLIFstop-mRNA in the presence of increasing concentrations of synthetic PamB2 (Extended Data Fig. 2). […] (Extended Data Fig. 2). […] (Extended Data Fig. 2).
# Toeprinting reactions for Fig. 4b and Extended Data Fig. 2 were performed as described previously. Briefly, reactions were performed with 6 μl of PURExpress in vitro protein synthesis system (New England Biolabs). The reactions were carried out with different primers and templates (Supplementary Tables 2 and 3). The reactions contained 340 ng of the respective mRNA template and were supplemented with the different compounds as specified. The translation reactions were incubated for 30 min at 37 °C. […]
# [2] = tested on: eukaryotic in vitro translation; assay: Eukaryotic in vitro translation assay (Rabbit Reticulocyte Lysate System); assay type: biochemical; conditions: 0.01-10 µM
# Description: The effect of PamB2 on eukaryotic translation was determined using the Rabbit Reticulocyte Lysate System (Promega) as previously described. Briefly, 6-μl reactions, with or without PamB2 were mixed according to the manufacturer’s description and incubated for 30 min at 32 °C with shaking (600 rpm). Each reaction was stopped by adding 3 μl of cycloheximide (600 μM). All samples were diluted with 40 μl of Luciferase assays substrate (Promega) into a white 96-well chimney flat-bottom microtiter plate (Greiner). The luminescence was then measured using a Tecan Infinite M1000 plate reader. Relative values were determined by defining the luminescence value of the sample without inhibitor as 100%.
# [3] = tested on: ribosomes translating ErmBL mRNA; assay: Toeprinting on ErmBL mRNA templates (Figs. 4a and 5c); assay type: biochemical, E. coli; conditions: 100 µM
# Description: Toeprinting reactions for Figs. 4a and 5c were performed as described previously. Briefly, reactions were performed with 5 μl of PURExpress in vitro protein synthesis system. The reactions contained 0.1 pmol of the respective DNA template (Supplementary Table 2) and were supplemented with retapamulin, erythromycin, mupirocin or PamB2 as specified. The transcription–translation reactions were incubated 20 min at 37 °C. Subsequently, reverse transcription was performed for 10 min at 37 °C using AMV RT and the radiolabeled NV*1-primer. Reactions were stopped by the addition of 1 µl of 10 M NaOH and then neutralized with 0.8 µl of concentrated HCl. Subsequently, 200 µl of the stop buffer (0.3 M sodium acetate (pH 5.5), 5 mM EDTA and 0.5% SDS) was added and phenol extraction was performed. The obtained complementary DNA was precipitated in ethanol for subsequent gel electrophoresis.
# [4] = tested on: ribosomes translating ErmBL mRNA; assay: Toeprinting on ErmBL mRNA with mutated second codon (Fig. 4b); assay type: biochemical, E. coli; conditions: 50 µM, in duplicate
# Description: Toeprinting reactions for Fig. 4b and Extended Data Fig. 2 were performed as described previously. Briefly, reactions were performed with 6 μl of PURExpress in vitro protein synthesis system (New England Biolabs). The reactions were carried out with different primers and templates (Supplementary Tables 2 and 3). The reactions contained 340 ng of the respective mRNA template and were supplemented with the different compounds as specified. The translation reactions were incubated for 30 min at 37 °C. The reverse transcription reaction was carried out using AMV RT and primer NV*1-Alexa 647 (5′-[…]-3′). The translation reactions were incubated with the reverse transcriptase and the primer for 20 min at 37 °C. mRNA degradation was carried out by the addition of 1 µl of 5 M NaOH. The reactions were neutralized with 0.7 µl of 25% HCl, and nucleotide removal was performed with the QIAquick Nucleotide Removal Kit (Qiagen). The samples were dried under vacuum for 2 h at 60 °C for subsequent gel electrophoresis. The 6% acrylamide gels were scanned on a Typhoon scanner (GE Healthcare).
substance,measurement,setting,value
paenilamicin B2 [PamB2],ribosome stalling on MLIFstop-mRNA,[1],gradual loss of ribosomes at the AUG codon and an increase in ribosomes stalled one codon further with the UUG (Leu) codon in the P-site
same,inhibition of eukaryotic in vitro translation (in words),[2],efficiently inhibits eukaryotic in vitro translation
same,inhibition when Phe-tRNA (ms2i6A37) decodes UUC in the A-site,[3]; ErmBL mRNA,no inhibition
same,inhibition when tRNALeu (ms2i6A37) decodes UUG in the A-site,[3]; ErmBL mRNA,not inhibited
same,translation through stretches of UUG codons,[3]; ErmBL mRNA with 1–5 UUG repeats,ribosomes can translate through stretches of up to five UUG codons unhindered
same,ribosome stalling at serine codon UCA,"[3]; ErmBL-(UUG)4 mRNA, seventh codon UCA, tRNASer with ms2i6A37",only weak stalling
same,ribosome stalling at serine codon UCC,"[3]; ErmBL-(UUG)4 mRNA, seventh codon UCC, tRNASer lacking A37 modification",strong stalling
same,ribosome stalling at serine codon UCG,"[3]; ErmBL-(UUG)4 mRNA, seventh codon UCG, tRNASer with ms2i6A37",only weak stalling
same,ribosome stalling at serine codon UCU,"[3]; ErmBL-(UUG)4 mRNA, seventh codon UCU, tRNASer lacking A37 modification",strong stalling
same,"ribosome stalling at subsequent sites, ErmBL mRNA",[3]; fourth UUC (Phe) in the P-site,a subset of ribosomes also become stalled
same,"accumulation of ribosomes on AUG start codon, wildtype (1×UUG) ErmBL mRNA","[3]; mupirocin present, in duplicate",did not lead to a strong accumulation of ribosomes on the AUG start codon
same,"ribosome stalling, wildtype (1×UUG) ErmBL mRNA","[3]; mupirocin present, second codon UUG in the P-site",ribosomes became stalled only once the second ermBL codon (UUG) moved into the P-site
same,"ribosome stalling at subsequent sites, ErmBL mRNA",[3]; third GUA codon in the P-site,not the third GUA codon in the P-site
same,"inhibition of first translocation, A-site codon AUG",[4]; ErmBL mRNA second codon AUG,clear toeprint bands
same,"inhibition of first translocation, A-site codon CUG","[4]; ErmBL mRNA second codon CUG (tRNALeu, m1G37)","appeared to be stronger than with U, it was reproducibly weaker than with A and G"
same,"inhibition of first translocation, A-site codon GUG",[4]; ErmBL mRNA second codon GUG,appeared to be the strongest
same,"inhibition of first translocation, A-site codon UUG",[4]; ErmBL mRNA second codon UUG,little to no inhibition of the first translocation event
